Results published in PubChem BioAssay AID1963833 (Molecular Pharmacology Branch, DTP, NCI, 2024).
pIC50: −log10 of the molar value.

Tested on: 883617-216-R-J1-PDC complex spheroid viability
Test: Anticancer human tumor 883617-216-R-J1-PDC patient-derived bladder carcinoma cell line growth inhibition [POLQ]
Conditions: for pIC50: curve of first compound; for viability, T/C: stronger effect = lower value
Outline: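 Patient-derived tumour cells were co-cultured with HUVEC and mesenchymal stem cells as multicellular spheroids at 37 °C. They were treated with POLQ inhibitors (novobiocin, ART-558, RP6685) alone or combined with other agents. Top concentrations were at or near clinical Cmax (otherwise 10 microM; SN-38 at 1 microM), decreasing in half-log steps.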
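Also: spheroids exposed to compounds for seven days before readout.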
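For viability, T/C in this document: 100% = DMSO vehicle control viability.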

Structure (SMILES): C=CCn1c(=O)c2cnc(Nc3ccc(N4CCN(C)CC4)cc3)nc2n1-c1cccc(C(C)(C)O)n1 + Cc1cccc(N(C)C(=O)C2C(O)CCN2c2nc(C)cc(C(F)(F)F)c2C#N)c1
- pIC50 (second compound 0.0316 µM): 6.03
- pIC50 (second compound 0.1 µM): < 6.00
- pIC50 (second compound 0.316 µM): 6.05
- pIC50 (second compound 1 µM): < 6.00
- pIC50 (second compound 3.16 µM): < 6.00
- pIC50 (second compound 10 µM): < 6.00
- viability, T/C (second compound 0.0316 µM, first compound 0.00316 µM): 106%
- viability, T/C (second compound 0.0316 µM, first compound 0.01 µM): 101%
- viability, T/C (second compound 0.0316 µM, first compound 0.0316 µM): 96.7%
- viability, T/C (second compound 0.0316 µM, first compound 0.1 µM): 86.6%
- viability, T/C (second compound 0.0316 µM, first compound 0.316 µM): 92.7%
- viability, T/C (second compound 0.0316 µM, first compound 1 µM): 47.1%
- viability, T/C (second compound 0.1 µM, first compound 0.00316 µM): 93.5%
- viability, T/C (second compound 0.1 µM, first compound 0.01 µM): 93.3%
- viability, T/C (second compound 0.1 µM, first compound 0.0316 µM): 95.4%
- viability, T/C (second compound 0.1 µM, first compound 0.1 µM): 109%
- viability, T/C (second compound 0.1 µM, first compound 0.316 µM): 86.2%
- viability, T/C (second compound 0.1 µM, first compound 1 µM): 53%
- viability, T/C (second compound 0.316 µM, first compound 0.00316 µM): 88.2%
- viability, T/C (second compound 0.316 µM, first compound 0.01 µM): 99.3%
- viability, T/C (second compound 0.316 µM, first compound 0.0316 µM): 102%
- viability, T/C (second compound 0.316 µM, first compound 0.1 µM): 98.8%
- viability, T/C (second compound 0.316 µM, first compound 0.316 µM): 90.8%
- viability, T/C (second compound 0.316 µM, first compound 1 µM): 45.5%
- viability, T/C (second compound 1 µM, first compound 0.00316 µM): 97.7%
- viability, T/C (second compound 1 µM, first compound 0.01 µM): 99%
- viability, T/C (second compound 1 µM, first compound 0.0316 µM): 108%
- viability, T/C (second compound 1 µM, first compound 0.1 µM): 112%
- viability, T/C (second compound 1 µM, first compound 0.316 µM): 81.9%
- viability, T/C (second compound 1 µM, first compound 1 µM): 53.2%
- viability, T/C (second compound 3.16 µM, first compound 0.00316 µM): 104%
- viability, T/C (second compound 3.16 µM, first compound 0.01 µM): 108%
- viability, T/C (second compound 3.16 µM, first compound 0.0316 µM): 97.6%
- viability, T/C (second compound 3.16 µM, first compound 0.1 µM): 93.6%
- viability, T/C (second compound 3.16 µM, first compound 0.316 µM): 100%
- viability, T/C (second compound 3.16 µM, first compound 1 µM): 53.4%
- viability, T/C (second compound 10 µM, first compound 0.00316 µM): 102%
- viability, T/C (second compound 10 µM, first compound 0.01 µM): 108%
- viability, T/C (second compound 10 µM, first compound 0.0316 µM): 119%
- viability, T/C (second compound 10 µM, first compound 0.1 µM): 99%
- viability, T/C (second compound 10 µM, first compound 0.316 µM): 107%
- viability, T/C (second compound 10 µM, first compound 1 µM): 54.3%
